Experimental data from patent publication US10617735B2, “Methods and compositions for preserving retinal ganglion cells” (Massachusetts Eye and Ear Infirmary, priority 2010, dated 2020).
Where a SMILES comes first, the peptide text is derived from it. The star is where a group is joined. Cbz = O=C(OCc1ccccc1)*; CH2F = FC*

Tests used:
[1] = tested on: retinal ganglion cells (RGCs); test: IPL thickness and GCL with IPL thickness after ON injury (immunohistochemistry, SD-OCT); format: in vivo, mouse; details: RIP3−/− mice; one week after ON injury
Procedure: An anti-TNF-α neutralizing antibody (0.1 mg/ml) or a control antibody was injected into the vitreous of mice that underwent ON injury. One week following injection, the number of RGCs were measured. In addition, inner plexiform layer (IPL) thickness (a location of RGC axons) was also assessed. Specifically, eyes were enucleated and RGC loss was quantified from histological sections of mouse retina. Only transverse sections involving the optic disc were used for analysis and the fields corresponding to approximately 400 μm of both sides of retina extending from the ON head (2 points/section×3 sections per eye, n=6) were examined with an optical microscope (×40 objectives). IPL thickness was measured with OpenLab software (Open Lab, Florence, Italy) (2 points/section×3 sections per eye, n=6). The ratio of IPL thickness was calculated as a percentage of IPL thickness in the normal mouse eyes (n=6).
Inner plexiform layer (IPL) thickness and ganglion cell layer (GCL) with IPL thickness (location of RGC cell bodies and axons) were measured using immunohistochemistry and a Spectral Domain Optical Coherence Tomography (SD-OCT) system (Bioptigen Inc., Durham, N.C.). […] The thickness of GCL+IPL was assessed at 500 μm, 400 μm, 300 μm distance from the ON head (nasally and temporally) as well as at 200 μm, 400 μm above and below the ON head.

[2] = tested on: Atg5, 7 and 12; test: Atg5, Atg7 and Atg12 expression after ON injury (quantitative RT-PCR); format: in vivo, mouse; details: one day after ON injury; compared with vehicle treatment
Procedure: Total RNA extraction, cDNA synthesis and PCR amplification have been performed as previously reported (Kayama et al., (2010) OPHTHALMIC RES 43:79-91). A real-time PCR assay was performed with Prism 7700 Sequence Detection System (Applied Biosystems, Foster City, Calif.). The primers are shown below in Table 1.
For relative comparison of each gene, the Ct value of real-time PCR data was analyzed with the ΔΔCt method and normalized to an endogenous control ([…].
To investigate whether autophagy influences RGC death after ON injury, expression of several genes critical for autophagosome formation including Atg5, 7 and 12 was measured by quantitative RT-PCR. […] In contrast, administration of ZVAD plus Nec-1, or Rip3 deficiency suppressed expression of Atg5, 7 and 12 transcripts (FIGS. 9A-9C).

[3] = tested on: retinal ganglion cell axons; test: Optic nerve crush model: axon regeneration (βIII-tubulin staining of longitudinal optic nerve sections); format: in vivo, mouse; details: 14 days, intravitreal ZVAD 300 μM and/or Nec-1 4 mM
Procedure: Mice were subjected to optic nerve crush surgery. Specifically, animals were anesthetized with an intraperitoneal injection of ketamine (60-80 mg/kg: Phoenix Pharmaceutical, St. Joseph, Mo.) and xylazine (10-15 mg/kg: Bayer, Shawnee Mission, K A). Animals were positioned in a stereotaxic apparatus and a 1-1.5 cm incision was made in the skin above the right orbit. Under microscopic illumination, the lachrymal glands and extraocular muscles were resected to expose 3-4 mm of the optic nerve. The epineurium was slit open along the long axis, and the nerve was crushed 2 mm behind the eye with angled jeweler's forceps (Dumont #5) for 10 seconds, avoiding injury to the ophthalmic artery. Nerve injury was verified by the appearance of a clearing at the crush site, while the vascular integrity of the retina was evaluated by fundoscopic examination. Cases in which the vascular integrity of the retina was in question were excluded from the study. […]
Axon regeneration was assessed by obtaining longitudinal sections of the optic nerve and counting the number of axons at pre-specified distances from the injury site. […] Axons were counted manually in at least eight longitudinal sections per case at pre-specified distances from the injury site. The number of regenerating axons at various distances are determined as described previously (Leon et al., (2000) J NEUROSCI 20:4615-4626). […]

[4] = studies on which the dose was selected; cited from earlier work

## COC(=O)CC(NC(=O)C(C)NC(=O)C(NC(=O)OCc1ccccc1)C(C)C)C(=O)CF (stereo not drawn) [Z-VAD, Benzyloxycarbonyl-Val-Ala-Asp(OMe)-fluoromethylketone] (Cbz-Val-Ala-Asp(OMe)-CH2F; configuration not given here)
[1]
  IPL thickness: preservation of IPL thickness
[2]
  Atg12 expression: further increased
[3]
  axon regeneration (βIII-tubulin axon staining beyond injury site): minimal effects on axon regeneration
[4]
  half-life inside the eye: around 6 hours
